Columns and labels:
Format in all cases: nucleic-acid assay
Nucleic Acid [1] = experiment: (§1) DNA hybridizing activity at 22 bp double stranded DNA assessed as thermal stability of duplexes formed between compound and complimentary dsDNA by measuring melting temperature at 1.5 uM in presence of 7 mM pH 5.5 sodium phosphate buffer containing 140 mM K, 10 mM MgCl2 by UV based melting experiment
Nucleic Acid [2] = experiment: DNA hybridizing activity at single stranded DNA assessed as thermal stability of duplexes formed between compound and complimentary ssDNA by measuring melting temperature at 4 uM in presence of 10 mM pH 7.2 sodium phosphate buffer containing 100 mM NaCl by UV based melting experiment
Nucleic Acid [3] = experiment: (§2) DNA hybridizing activity at single stranded RNA assessed as thermal stability of duplexes formed between compound and complimentary ssRNA by measuring change in melting temperature at 4 uM in presence of 10 mM pH 7.2 sodium phosphate buffer containing 100 mM NaCl by UV based melting experiment relative to untreated control
Nucleic Acid [4] = experiment: as §1, with “measuring change in” for “measuring”
Nucleic Acid [5] = experiment: DNA hybridizing activity at single stranded RNA assessed as thermal stability of duplexes formed between compound and complimentary ssRNA by measuring melting temperature at 4 uM in presence of 10 mM pH 7.2 sodium phosphate buffer containing 100 mM NaCl by UV based melting experiment
Nucleic Acid [6] = experiment: as §2, with “DNA” for “RNA”, “ssDNA” for “ssRNA”

SMILES: Cc1cn([C@H]2C[C@H](OP(=O)(O)OC[C@H]3O[C@@H](n4cc(C)c(=O)[nH]c4=O)C[C@@H]3OP(=O)(O)OC[C@H]3O[C@@H](n4cc(C)c(=O)[nH]c4=O)C[C@@H]3O[P@@](=O)(OC[C@H]3O[C@@H](n4cc(C)c(=O)[nH]c4=O)C[C@@H]3OP(=O)(O)OC[C@H]3O[C@@H](n4cc(C)c(=O)[nH]c4=O)C[C@@H]3OP(=O)(O)OC[C@H]3O[C@@H](n4cc(C)c(=O)[nH]c4=O)C[C@@H]3OP(=O)(O)OC[C@H]3O[C@@H](n4ccc(N)nc4=O)C[C@@H]3OP(=O)(O)OC[C@H]3O[C@@H](n4ccc(N)nc4=O)C[C@@H]3OP(=O)(O)OC[C@H]3O[C@@H](n4ccc(N)nc4=O)C[C@@H]3OP(=O)(O)O)SCCCCCCN)[C@@H](COP(=O)(O)O[C@H]3C[C@H](n4ccc(N)nc4=O)O[C@@H]3COP(=O)(O)O[C@H]3C[C@H](n4ccc(N)nc4=O)O[C@@H]3COP(=O)(O)O[C@H]3C[C@H](n4ccc(N)nc4=O)O[C@@H]3CO)O2)c(=O)[nH]c1=O
- Tm (Nucleic Acid [1]): 27 °C
- Tm (Nucleic Acid [2]): 42 °C
- ΔTm (Nucleic Acid [3]): -3 °C
- ΔTm (Nucleic Acid [4]): 2 °C
- Tm (Nucleic Acid [5]): 43 °C
- ΔTm (Nucleic Acid [6]): 0 °C

SMILES: Cc1cn([C@H]2C[C@H](OP(=O)(O)OC[C@H]3O[C@@H](n4cc(C)c(=O)[nH]c4=O)C[C@@H]3OP(=O)(O)OC[C@H]3O[C@@H](n4cc(C)c(=O)[nH]c4=O)C[C@@H]3O[P@@](=O)(OC[C@H]3O[C@@H](n4cc(C)c(=O)[nH]c4=O)C[C@@H]3OP(=O)(O)OC[C@H]3O[C@@H](n4cc(C)c(=O)[nH]c4=O)C[C@@H]3OP(=O)(O)OC[C@H]3O[C@@H](n4cc(C)c(=O)[nH]c4=O)C[C@@H]3OP(=O)(O)OC[C@H]3O[C@@H](n4ccc(N)nc4=O)C[C@@H]3OP(=O)(O)OC[C@H]3O[C@@H](n4ccc(N)nc4=O)C[C@@H]3OP(=O)(O)OC[C@H]3O[C@@H](n4ccc(N)nc4=O)C[C@@H]3OP(=O)(O)O)SCCCN)[C@@H](COP(=O)(O)O[C@H]3C[C@H](n4ccc(N)nc4=O)O[C@@H]3COP(=O)(O)O[C@H]3C[C@H](n4ccc(N)nc4=O)O[C@@H]3COP(=O)(O)O[C@H]3C[C@H](n4ccc(N)nc4=O)O[C@@H]3CO)O2)c(=O)[nH]c1=O
- Tm (Nucleic Acid [1]): 29 °C
- Tm (Nucleic Acid [2]): 43 °C
- ΔTm (Nucleic Acid [3]): 0 °C
- ΔTm (Nucleic Acid [4]): 4 °C
- Tm (Nucleic Acid [5]): 46 °C
- ΔTm (Nucleic Acid [6]): 1 °C

SMILES: Cc1cn([C@H]2C[C@H](OP(=O)(O)OC[C@H]3O[C@@H](n4cc(C)c(=O)[nH]c4=O)C[C@@H]3OP(=O)(O)OC[C@H]3O[C@@H](n4cc(C)c(=O)[nH]c4=O)C[C@@H]3O[P@](=O)(OC[C@H]3O[C@@H](n4cc(C)c(=O)[nH]c4=O)C[C@@H]3OP(=O)(O)OC[C@H]3O[C@@H](n4cc(C)c(=O)[nH]c4=O)C[C@@H]3OP(=O)(O)OC[C@H]3O[C@@H](n4cc(C)c(=O)[nH]c4=O)C[C@@H]3OP(=O)(O)OC[C@H]3O[C@@H](n4ccc(N)nc4=O)C[C@@H]3OP(=O)(O)OC[C@H]3O[C@@H](n4ccc(N)nc4=O)C[C@@H]3OP(=O)(O)OC[C@H]3O[C@@H](n4ccc(N)nc4=O)C[C@@H]3OP(=O)(O)O)SCCN)[C@@H](COP(=O)(O)O[C@H]3C[C@H](n4ccc(N)nc4=O)O[C@@H]3COP(=O)(O)O[C@H]3C[C@H](n4ccc(N)nc4=O)O[C@@H]3COP(=O)(O)O[C@H]3C[C@H](n4ccc(N)nc4=O)O[C@@H]3CO)O2)c(=O)[nH]c1=O
- Tm (Nucleic Acid [1]): 24 °C
- Tm (Nucleic Acid [2]): 41 °C
- ΔTm (Nucleic Acid [3]): -3 °C
- ΔTm (Nucleic Acid [4]): -2 °C
- Tm (Nucleic Acid [5]): 43 °C
- ΔTm (Nucleic Acid [6]): -1 °C

SMILES: Cc1cn([C@H]2C[C@H](OP(=O)(O)OC[C@H]3O[C@@H](n4cc(C)c(=O)[nH]c4=O)C[C@@H]3OP(=O)(O)OC[C@H]3O[C@@H](n4cc(C)c(=O)[nH]c4=O)C[C@@H]3O[P@](=O)(OC[C@H]3O[C@@H](n4cc(C)c(=O)[nH]c4=O)C[C@@H]3OP(=O)(O)OC[C@H]3O[C@@H](n4cc(C)c(=O)[nH]c4=O)C[C@@H]3OP(=O)(O)OC[C@H]3O[C@@H](n4cc(C)c(=O)[nH]c4=O)C[C@@H]3OP(=O)(O)OC[C@H]3O[C@@H](n4ccc(N)nc4=O)C[C@@H]3OP(=O)(O)OC[C@H]3O[C@@H](n4ccc(N)nc4=O)C[C@@H]3OP(=O)(O)OC[C@H]3O[C@@H](n4ccc(N)nc4=O)C[C@@H]3OP(=O)(O)O)SCCNCCCN)[C@@H](COP(=O)(O)O[C@H]3C[C@H](n4ccc(N)nc4=O)O[C@@H]3COP(=O)(O)O[C@H]3C[C@H](n4ccc(N)nc4=O)O[C@@H]3COP(=O)(O)O[C@H]3C[C@H](n4ccc(N)nc4=O)O[C@@H]3CO)O2)c(=O)[nH]c1=O
- Tm (Nucleic Acid [1]): 25 °C
- Tm (Nucleic Acid [2]): 40 °C
- ΔTm (Nucleic Acid [3]): -2 °C
- ΔTm (Nucleic Acid [4]): -1 °C
- Tm (Nucleic Acid [5]): 44 °C
- ΔTm (Nucleic Acid [6]): -2 °C

SMILES: Cc1cn([C@H]2C[C@H](OP(=O)(O)O)[C@@H](COP(=O)(O)O[C@H]3C[C@H](n4ccc(N)nc4=O)O[C@@H]3COP(=O)(O)O[C@H]3C[C@H](n4ccc(N)nc4=O)O[C@@H]3COP(=O)(O)O[C@H]3C[C@H](n4cc(C)c(=O)[nH]c4=O)O[C@@H]3COP(=O)(O)O[C@H]3C[C@H](n4cc(C)c(=O)[nH]c4=O)O[C@@H]3COP(=O)(O)O[C@H]3C[C@H](n4cc(C)c(=O)[nH]c4=O)O[C@@H]3COP(=O)(O)O[C@H]3C[C@H](n4cc(C)c(=O)[nH]c4=O)O[C@@H]3COP(=O)(O)O[C@H]3C[C@H](n4cc(C)c(=O)[nH]c4=O)O[C@@H]3COP(=O)(O)O[C@H]3C[C@H](n4cc(C)c(=O)[nH]c4=O)O[C@@H]3COP(=O)(O)O[C@H]3C[C@H](n4ccc(N)nc4=O)O[C@@H]3COP(=O)(O)O[C@H]3C[C@H](n4ccc(N)nc4=O)O[C@@H]3COP(=O)(O)O[C@H]3C[C@H](n4ccc(N)nc4=O)O[C@@H]3CO)O2)c(=O)[nH]c1=O
- Tm (Nucleic Acid [1]): 29 °C
- Tm (Nucleic Acid [2]): 44 °C
- Tm (Nucleic Acid [5]): 48 °C

SMILES: Cc1cn([C@H]2C[C@H](OP(=O)(O)OC[C@H]3O[C@@H](n4cc(C)c(=O)[nH]c4=O)C[C@@H]3OP(=O)(O)OC[C@H]3O[C@@H](n4cc(C)c(=O)[nH]c4=O)C[C@@H]3O[P@](=O)(S)OC[C@H]3O[C@@H](n4cc(C)c(=O)[nH]c4=O)C[C@@H]3OP(=O)(O)OC[C@H]3O[C@@H](n4cc(C)c(=O)[nH]c4=O)C[C@@H]3OP(=O)(O)OC[C@H]3O[C@@H](n4cc(C)c(=O)[nH]c4=O)C[C@@H]3OP(=O)(O)OC[C@H]3O[C@@H](n4ccc(N)nc4=O)C[C@@H]3OP(=O)(O)OC[C@H]3O[C@@H](n4ccc(N)nc4=O)C[C@@H]3OP(=O)(O)OC[C@H]3O[C@@H](n4ccc(N)nc4=O)C[C@@H]3OP(=O)(O)O)[C@@H](COP(=O)(O)O[C@H]3C[C@H](n4ccc(N)nc4=O)O[C@@H]3COP(=O)(O)O[C@H]3C[C@H](n4ccc(N)nc4=O)O[C@@H]3COP(=O)(O)O[C@H]3C[C@H](n4ccc(N)nc4=O)O[C@@H]3CO)O2)c(=O)[nH]c1=O
- Tm (Nucleic Acid [1]): 25 °C
- Tm (Nucleic Acid [2]): 42 °C
- Tm (Nucleic Acid [5]): 46 °C

SMILES: Cc1cn([C@H]2C[C@H](OP(=O)(O)OC[C@H]3O[C@@H](n4cc(C)c(=O)[nH]c4=O)C[C@@H]3OP(=O)(O)OC[C@H]3O[C@@H](n4cc(C)c(=O)[nH]c4=O)C[C@@H]3O[P@@](=O)(S)OC[C@H]3O[C@@H](n4cc(C)c(=O)[nH]c4=O)C[C@@H]3OP(=O)(O)OC[C@H]3O[C@@H](n4cc(C)c(=O)[nH]c4=O)C[C@@H]3OP(=O)(O)OC[C@H]3O[C@@H](n4cc(C)c(=O)[nH]c4=O)C[C@@H]3OP(=O)(O)OC[C@H]3O[C@@H](n4ccc(N)nc4=O)C[C@@H]3OP(=O)(O)OC[C@H]3O[C@@H](n4ccc(N)nc4=O)C[C@@H]3OP(=O)(O)OC[C@H]3O[C@@H](n4ccc(N)nc4=O)C[C@@H]3OP(=O)(O)O)[C@@H](COP(=O)(O)O[C@H]3C[C@H](n4ccc(N)nc4=O)O[C@@H]3COP(=O)(O)O[C@H]3C[C@H](n4ccc(N)nc4=O)O[C@@H]3COP(=O)(O)O[C@H]3C[C@H](n4ccc(N)nc4=O)O[C@@H]3CO)O2)c(=O)[nH]c1=O
- Tm (Nucleic Acid [1]): 26 °C
- Tm (Nucleic Acid [2]): 42 °C
- Tm (Nucleic Acid [5]): 46 °C

Reference: ChEMBL document CHEMBL2057188, “Hybridizing ability and nuclease resistance profile of backbone modified cationic phosphorothioate oligonucleotides” (Bioorg Med Chem, 2012)
